Data on 1 substance can be found in patent US20200179488A1, “Secretin Receptor Agonists to Treat Diseases or Disorders of Energy Homeostasis” (Technische Universität München, priority 2016, published 2020).

One test concerns fasted mice. The test can be described thus: Food intake on refeeding of fasted wildtype mice. The following applies: mice fasted 18 h, 5 nmol i.p. before refeeding, p=0.0181 (FIG. 7). The format is in vivo, Mus musculus. The procedure:
(§1) For the measurement of food intake, a feeding-drinking-activity (FDA) device was used (TSE Systems, Bad Homburg/Germany). During the measurement mice were single-housed in type-III cages. Mice were habituated to the new cage environment and received every morning at 10 a.m. a single daily intraperitoneal (i.p.) PBS-injection for four days ahead of the experiment start. The body weight of the mice was measured every day. On day four day of habituation the food was removed from the cages at 5 p.m., and the mice were food deprived over night with ad libitum access to water. On the next morning, mice were i.p. injected with either PBS as control or secretin (rat, Tocris, Art Nr 1919). The latter was given in different doses. Subsequently the mice were refed ad libitum while monitoring food intake during the following 72 hours. […] Food intake was calculated from the decrease in feeder weight. The results were exported into a spreadsheet calculation table (Excel, Microsoft) and analyzed with a software package for statistics and graphics (GraphPad Prism 4.0, GraphPad Software, San Diego, USA).
(§2) Next to thermogenesis, brown fat has been proposed to function in the thermoregulatory control of feeding. […] Just before refeeding, mice were intra-peritoneally injected with 5 nmol secretin solved in PBS, or PBS as the vehicle control, and food intake was monitored for the following three days.

The next test concerns wildtype mice. The test can be described thus: Indirect calorimetry, heat production after i.p. injection in wildtype mice. The note with it: 0.5 mg/kg i.p., 27° C. In kind it is in vivo, Mus musculus. The procedure:
Indirect calorimetric measurements in mice were performed using an open flow respirometry system (Phenomaster, TSE Systems, Bad Homburg/Germany). All animals were kept at room temperature or cold-acclimated at 4° C. for 4 days as indicated in the results section. For the gas exchange measurement (O2 consumption and CO2 production) mice were placed individually in metabolic cages (type I, 3 liter volume) without food and water and transferred to a climate cabinet (TPK 600, Feutron, Greiz/Germany). The air was continuously pulled through the cages at a flow rate of 33 l/h. For gas analysis a subsample was dried in a cooling trap and analyzed for gas exchange. Mice in the cabinet were preconditioned to 30° C. and the basal metabolic rate (BMR) in the post-absorptive state was measured between 8:00 a.m.-12:00 p.m. The O2 consumption and CO2 production of each mouse was analyzed every 5 min over a period of 1 min. […] After injection the O2 consumption and CO2 production rate of each mouse was recorded for 45-60 min with high-resolution recordings at 10 sec intervals. […] Respiratory exchange ratios (RER) and heat production (HP) were calculated from the following formula: (RER=CO2 production/O2 consumption) and (HP[mW]=(4.44+1.43*respiratory exchange ratio)*oxygen consumption [ml/h]).

A further test concerns UCP1 knockout mice. The test can be described thus: Food intake on refeeding of fasted Ucp1 knockout mice. The note with it: fasted 18 h, 5 nmol i.p., 4 hours of refeeding, compared to wildtype (FIG. 8). In kind it is in vivo, Mus musculus. The procedure:
as §1, §2

Test [1] deals with UCP1 expression. As to the kind of experiment: UCP1 mRNA expression (qRT-PCR) in primary adipocytes from interscapular brown adipose tissue. The format is cell-based, Mus musculus. The following applies: 0.1 μM secretin or 0.5 μM isoproterenol, 6 hours, normalized to TFIIB (FIG. 4B). Here is the method:
(§3) For culturing primary adipocytes male 129S1/SvImJ mice ([…] or UCP1-KO mice and wildtype littermates) at the age of 5-6 weeks were used for the dissection of inguinal and epidydimal white adipose tissue and interscapular brown adipose tissue depots. The tissue was carefully minced and treated with collagenase for 45 min at 37° C. The homogenate was filtered through a 250 μm nylon mesh and centrifuged at 500 g to collect the stromal vascular fraction (SVF). The SVF cell pellet was rinsed and seeded into XF96 V3-PS cell culture microplate (Seahorse Bioscience). After reaching confluency, induction medium containing 10% fetal bovine serum (FBS), 0.5 mM isobutylmethylxanthine, 125 nM indomethacin, 1 mM dexamethasone, 850 nM insulin and 1 nM T3 was added. […] Respiration was measured on day 7 of differentiation. […] RNA was eluted in 50 μl nuclease-free water and RNA concentration was determined spectrophotometrically (Infinite 200 PRO NanoQuant, Tecan, Männedorf/Switzerland). Reverse transcription into cDNA was performed with 500 ng RNA in a final volume of 10 μl (Quantitect Reverse Transcription Kit, Quiagen, Hilden/Germany). qRT-PCR was conducted on 384 well plates in a total volume of 12.5 μl comprising 6.25 μl SensiMix SYBR No-ROX (Bioline, London/UK), 250 nM forward and reverse primers, and 1 μl template cDNA (LightCycler 480 System, Roche Diagnostics, Rotkreuz/Switzerland). […]
Background: Quantitative PCR measures a nucleic acid by following its amplification.

Test [2] relates to UCP1 expression. As to the kind of experiment: UCP1 mRNA expression (qRT-PCR) in primary adipocytes from inguinal white adipose tissue. The note with it: 0.1 μM secretin or 0.5 μM isoproterenol, 6 hours, normalized to TFIIB (FIG. 4A). In kind it is cell-based, Mus musculus. Here is the method:
as §3

With secretin, the “food intake during the first two hours of refeeding versus PBS” value in the test on fasted mice is “significant inhibition of food intake”. In addition, the “AUC of heat production versus PBS” value was “significant increase in the AUC” in the test on wildtype mice (129/S6 wildtype mice, 45 minutes, basal subtracted, p=0.001 (FIG. 5B)) and “higher AUC” with wildtype mice (wildtype mice of 129/S1-UCP1 knockout strain, 60 minutes, p=0.002 (FIG. 6C)). Also, the “refeeding food intake in Ucp1 knockout mice” value with UCP1 knockout mice is reported as “did not inhibit refeeding”. In the test with UCP1 expression [1], the “UCP1 mRNA expression in brown adipocytes versus PBS” value is on record as “significantly increased the expression of the UCP1 gene”. In addition, the “UCP1 mRNA expression in white adipocytes versus PBS” value with UCP1 expression [2] is “increased the expression of UCP1”.
